The record followed here is US20110245104A1, “Method for screening the sensitizing properties of chemical compounds” (priority 2010, published 2011).

The subject of data set [1] is Normal human epidermal keratinocytes (HEKn). Kind of data set: Keratinocyte blebbing response, light microscopy (Example 1). As for the experimental part:
Normal human epidermal keratinocytes (HEKn, Cascade Biologics, Portland, Oreg., USA) were maintained in phenol red-free EpiLife keratinocyte medium (Cascade Biologics) supplemented with 60 μM CaCl2, the antibiotics gentamicin/amphotericin and 1% (v/v) human keratinocyte growth supplement (HKGS; Cascade Biologics). Alternatively, Medium 154 containing 200 μM CaCl2 supplemented with HKGS (1% (v/v), without antibiotics is used. Cells were grown at 37° C. in a humidified 5% CO2 incubator. Final concentrations of the components in the supplemented medium were: bovine pituitary extract, 0.2% v/v; bovine insulin, […]; hydrocortisone, […]; bovine transferrin, […]; human epidermal growth factor, 0.2 ng/mL; optional: gentamicin, 10 μg/mL and amphotericin B, 0.25 μg/mL. All reagents were obtained from Cascade Biologics, Portland, Oreg., USA. The keratinocytes were used for experiments in the fifth or sixth passage.
HEKn cells in passage 6 were split and resuspended to 18500 cells/ml in medium 154 (Cascade Biologics) supplemented with 1% (v/v) human keratinocyte growth supplement (HKGS; Cascade Biologics, no antibiotics added). Cell suspension (0.5 ml) was added to each well in a 24 well plate (Nunc Multidishes Nunclon, Sigma Aldrich, Stockholm, Sweden) and incubated at 37° C., 5% CO2. The medium was replaced every second day by fresh 154 medium supplemented with HKGS (no antibiotics added) until cells had grown confluent.
The compounds to be tested (for example: mBBr, SDS, CDNB, nonanoic acid, HCA, oxazolone were purchased from Sigma Aldrich, qBBr, dBBr, glyoxal, and formaldehyde were obtained from Merck-Schuchardt, Darmstadt, Germany) were diluted in DMSO (Sigma Aldrich, Stockholm, Sweden) to final concentrations of 50 mM, 5 mM and 0.5 mM. These stock solutions were prepared fresh each time the experiment was performed. Alternatively, the mixture, solution, formulation, etc. can be used after dilution/dissolving in DMSO (to test the combined effects of the compounds in that particular preparation).
1) Cell preparation just prior to starting the experiment: the medium in the cell culture plate was replaced by 250 μl fresh Medium 154 (Cascade Biologics) supplemented with HKGS (1% (v/v) human keratinocyte growth supplement (HKGS; Cascade Biologics)) and the cells are kept at 37° C., 5% CO2.
2) Preparation of test compound in medium: 245 μl Medium 154 was added to 0.5 ml microtubes and preheated to 37° C. (waterbath). 5 μl of stock solution of compound was added to the microtubes containing preheated medium. These solutions were then added immediately to the cells in the 24-well plate.
3) The solutions in the microtubes (i.e. 250 μl medium+test compound) were added to each plate. The final concentration of each compound in the test was thus 0.5 mM, 0.05 mM, and 0.005 mM. The plate containing cells and test compounds was incubated for 24 hours at 37° C., 5% CO2.
4A) Each well was examined with a light microscope to determine the blebbing response (a Nikon TE300 inverted microscope) coupled to a digital camera.

The test system of data set [2] is serum amyloid P component (SAP). Kind of data set: Serum amyloid P component (SAP) in sera of mice exposed to sensitizers. It is filed as in vivo. Conditions: sera of mice exposed to sensitizer.
For data set [3], the system named is anti-nuclear antibodies (ANA). As to the kind of experiment: Anti-nuclear antibodies (ANA) in sera of mice topically exposed to haptens. It is filed as in vivo. Conditions: topical exposure.
Data set [4] concerns K5 and K14 in blebs from human keratinocytes. As to the kind of experiment: Keratin content of blebs released from keratinocytes (Western blot). It is filed as cell-based. Conditions: blebs from hapten-treated keratinocytes. As for the experimental part: The quantification of the blebbing response was also made by observing: the amount of released protein (e.g. K5 and K14) through SDS-PAGE and western blots. Blebs were collected and lysed as described in example 4. SDS-PAGE: The samples were diluted (Blebs: 46 μg, 30 μl for blotting and 29.2 μg, 40 μl for SDS-PAGE. K14 and K5: 0.2 μg, 5 μl) with XT Sample Buffer 4X (BioRad, Hercules, Calif., USA) and milli-Q water. 1 μl DTT (2M) was added to each sample followed by heating at 96° C. for 2 minutes before application on the gel. Electrophoresis program: 200V, 400 mA, 50 W, 50 min. MOPS Running Buffer. The gels were fixed, scanned for fluorescence (excitation 480 nm, emission 530 nm) and coomassie stained (Bio-Safe™ Coomassie, BioRad, Hercules, Calif., USA). The gels are then used for quantitative measurement of proteins. Western Blot: Unfixed gels were blotted onto polyvinyldifluoride membranes (PVDF Ready-gel Blotting Sandwiches, 7×8.5 cm, BioRad, Hercules, Calif., USA). Blotting program: 70 V, 400 mA, 50 W, 30 min. Transfer buffer. Novex XCell II™ Blot Module (E19051, Novex, San Diego, Calif., USA). […]
The blebs in the supernatant was lysed with 4× freeze-thaw cycles using ethanol, dry ice and a 37° C. water bath. […] Total protein concentration was determined with Pierce BCA Protein Assay. […]

Data set [5] concerns the target T1, cysteine 54 (C54) of K5 (Homo sapiens, UniProt P13647).
T1 construct: endogenous in cells; host or cells: intact full-thickness human skin; living (primary) human keratinocytes
T1 sequence (P13647 1-590): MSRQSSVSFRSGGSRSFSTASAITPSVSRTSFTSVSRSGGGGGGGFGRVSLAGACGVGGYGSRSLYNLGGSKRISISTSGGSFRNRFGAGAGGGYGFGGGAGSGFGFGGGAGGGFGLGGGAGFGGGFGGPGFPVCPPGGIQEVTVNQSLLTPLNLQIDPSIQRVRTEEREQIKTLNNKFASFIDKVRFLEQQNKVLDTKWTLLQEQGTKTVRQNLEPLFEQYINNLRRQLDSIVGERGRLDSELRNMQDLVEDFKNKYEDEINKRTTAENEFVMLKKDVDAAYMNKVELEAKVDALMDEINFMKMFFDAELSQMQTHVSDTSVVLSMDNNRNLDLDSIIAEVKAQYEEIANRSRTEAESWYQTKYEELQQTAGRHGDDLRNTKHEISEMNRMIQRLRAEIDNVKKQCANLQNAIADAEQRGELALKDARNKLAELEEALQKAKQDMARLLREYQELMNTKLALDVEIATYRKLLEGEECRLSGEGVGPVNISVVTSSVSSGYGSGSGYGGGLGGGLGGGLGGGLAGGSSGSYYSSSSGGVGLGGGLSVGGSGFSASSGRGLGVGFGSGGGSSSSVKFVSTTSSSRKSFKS
T1 sequence (P02533 1-472 partner): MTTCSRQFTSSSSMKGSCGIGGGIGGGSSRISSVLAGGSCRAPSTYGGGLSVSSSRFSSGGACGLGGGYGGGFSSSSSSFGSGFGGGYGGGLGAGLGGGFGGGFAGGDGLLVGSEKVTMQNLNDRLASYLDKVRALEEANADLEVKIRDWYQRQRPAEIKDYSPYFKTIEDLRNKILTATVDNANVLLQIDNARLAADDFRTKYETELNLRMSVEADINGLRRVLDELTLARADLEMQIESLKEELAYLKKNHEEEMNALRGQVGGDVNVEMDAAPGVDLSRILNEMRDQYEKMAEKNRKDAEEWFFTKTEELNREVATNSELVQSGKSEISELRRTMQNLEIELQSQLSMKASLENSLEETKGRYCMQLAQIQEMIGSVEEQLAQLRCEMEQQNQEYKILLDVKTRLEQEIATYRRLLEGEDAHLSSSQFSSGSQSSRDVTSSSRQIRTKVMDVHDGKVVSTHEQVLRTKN
As to the kind of experiment: Haptenation site by LTQ-FT-ICR mass spectrometry. The conditions noted are these: full-thickness human skin and living human keratinocytes. An excerpt:
The second step is that the molecules enter the basal cells. Since the extracellular environment is oxidizing, extracellular cysteines are mostly oxidized to disulfides. However, it is in the reduced, intracellular environment that the haptens find reduced thiols to react with. Once inside the cells the compounds will react with available (i.e. not sterically hindered), reduced cysteines (thiol groups). […] Furthermore, it was identified that one of the cysteines that the haptens react with is cysteine 54 (C54) of K5. […] One of the reasons for intense reaction at C54 is presumably its high effective concentration just inside the cell membrane. It is vital in the life of an organism to fail-safe its epithelial integrity, and the bundling of the KIFs ensures a high effective local concentration of the peptide stretch containing C54, ensuring strong welding of the cell to its surroundings. Amino acids nearby in the primary sequence are consequently also located within physical reach of an incoming compound in similarly high effective concentrations. Looking at blebbing brought on by amine- and arginine-reactive compounds from this angle, the residues K71 and R72 are the closest candidates in the primary sequence.

Data set [6] has as its system human skin excerpts. Kind of data set: Labeling of human skin excerpts by caged haptens. An excerpt:
The first step is that the molecules come into contact with the skin (the stratum corneum). Many of the reactive molecules react in the stratum corneum, something that can be seen in experiments with human skin excerpts and the caged (mBBr and dBBr) haptens. However, a significant proportion of the molecules penetrate further down to the suprabasal layers of the epidermis but also the follicular pathway is of importance for bringing xenobiotics into the skin. It is likely that the penetration is due both to the acidic pH of the stratum corneum (the molecules react more slowly when the pH is low), but also because many of the available groups have reacted. In the suprabasal layers, the haptens have a hard time penetrating the cells, as the cornification of the cells creates a thick, relatively impermeable envelope around the suprabasal cells. Consequently, the haptens penetrate down to the basal layer. Here, the cell membrane is much thinner and more fluidic and the molecules can thus enter the basal cells.

Setting [7] is: HEKn cells, tested at 0.5, 0.05 and 0.005 mM.
Setting [8] is: HEKn cells, time 24 h and concentration 0.5 mM, visual inspection, blind.
Where [9] appears, read: compound added to human keratinocytes.

“Also recorded” adds a separate entry of the source. Like-named read-outs stand apart in the source and are kept apart here.

For the compound `C=O` [formaldehyde], the “Blebbing response of human keratinocytes (induced or not)” value (“Blebbing response … (induced or not)” for short) in data set [1] is on record as “provoke a blebbing response”.
With `O=[N+]([O-])c1ccc(Cl)c([N+](=O)[O-])c1` [CDNB, 1-chloro 2,4 dinitrobenzene], the “Level of serum amyloid P component (SAP)” value in data set [2] is recorded as “increased levels”. The “Concentration at which the cells produced blebs after 24 hours” value in data set [1] (setting [7]) is 500 µM. The compound further came in with a Time to blebbing in data set [1] (HEKn cells, inspected at 1.5, 2.5 and 24 h, tested at 0.5, 0.05 and 0.005 mM) of 24 h. In addition, the Amount of blebs result in data set [1] (setting [8]) is “++”. For the same compound, the “Blebbing response … (induced or not)” value in data set [1] (setting [9]) is recorded as “provoke a blebbing response”. Further, the “Sensitizing potential, collective analysis of the three blebbing endpoints” value (shortened to “Sensitizing potential”) in data set [1] (time to blebbing, concentration, amount of blebs combined) is on record as “strong sensitizers”. Also, in data set [3], the “Level of anti-nuclear antibodies (ANA) in sera” value (“Level of anti-nuclear antibodies” for short) is listed as “increased levels”.
For the compound `CCO/C=C1\N=C(c2ccccc2)OC1=O` [oxazolone], in data set [1], the Amount of blebs result was “+++”; the “Blebbing response … (induced or not)” value was “provoke a blebbing response”; the “Sensitizing potential” value is “extreme sensitizer”; the Time to blebbing is on record as 1.5 h. The “Level of anti-nuclear antibodies” value in data set [3] is on record as “increased levels”. Also, the “Keratins (K5 and K14) in blebs” value in data set [4] was “contain K5 and K14; also recorded: contain keratins”.
Take `O=CC=O` [glyoxal]: the “Level of serum amyloid P component (SAP)” value in data set [2] is “increased levels”. In data set [1], the “Sensitizing potential” value was “moderate sensitizer”. In data set [1] (setting [7]), the “Concentration at which the cells produced blebs after 24 hours” value is 500 µM. Further, the Amount of blebs entry in data set [1] (setting [8]) was “+”. Further, the “Blebbing response … (induced or not)” value in data set [1] (setting [9]) is on record as “provoke a blebbing response”. Moreover, in data set [3], the “Level of anti-nuclear antibodies” value is recorded as “increased levels”. The “Keratins (K5 and K14) in blebs” value in data set [4] was “contain K5 and K14; also recorded: contain keratins”.
In the case of `CCCCCCC(C=O)=Cc1ccccc1` [HCA, α-hexyl cinnamic aldehyde], the “Blebbing response … (induced or not)” value in data set [1] is given as “did not induce blebbing at the tested concentrations”.
Take `Cc1c(C)n2c(CBr)c(C)c(=O)n2c1=O` [mBBr, monobromobimane]: the “Covalent modification of C54 of K5” value in data set [5] is given as “modify C54 of K5; also recorded: modifies C54 of K5”. Moreover, the “Labeling of cells in the basal layer” value in data set [6] is recorded as “cells in the basal layer are labeled”. The “Level of anti-nuclear antibodies” value in data set [3] is listed as “increased levels”.
